# Source: ChEMBL document CHEMBL1201862, “PubChem BioAssay data set” (2004)
# Calls of active or inactive are those of the source.
# Experiments:
# [1] = target: T1, Neuropeptide Y receptor type 2 (Homo sapiens, UniProt P49146); test: NPY-Y2 antagonist potency, selectivity check, dose response, counter-screen for NPY-Y1 antagonist project, cell-based (AID 1278); assay type: functional
# T1 sequence (P49146 whole entry): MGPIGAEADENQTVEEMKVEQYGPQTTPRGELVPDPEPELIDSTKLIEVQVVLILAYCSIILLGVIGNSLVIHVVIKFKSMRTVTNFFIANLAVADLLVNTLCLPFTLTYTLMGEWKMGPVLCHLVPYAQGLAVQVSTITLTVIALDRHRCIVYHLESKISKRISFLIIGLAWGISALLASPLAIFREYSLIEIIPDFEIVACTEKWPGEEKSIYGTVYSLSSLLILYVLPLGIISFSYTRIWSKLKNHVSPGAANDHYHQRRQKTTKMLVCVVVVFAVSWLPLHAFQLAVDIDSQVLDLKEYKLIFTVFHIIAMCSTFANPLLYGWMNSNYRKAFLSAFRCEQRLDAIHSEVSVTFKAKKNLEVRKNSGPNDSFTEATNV
# [2] = target: T2, Neuropeptide Y receptor type 1 (Homo sapiens, UniProt P25929); test: NPY-Y1 receptor antagonist potency, dose response, cell-based (AID 1277); assay type: functional
# T2 sequence (P25929 whole entry): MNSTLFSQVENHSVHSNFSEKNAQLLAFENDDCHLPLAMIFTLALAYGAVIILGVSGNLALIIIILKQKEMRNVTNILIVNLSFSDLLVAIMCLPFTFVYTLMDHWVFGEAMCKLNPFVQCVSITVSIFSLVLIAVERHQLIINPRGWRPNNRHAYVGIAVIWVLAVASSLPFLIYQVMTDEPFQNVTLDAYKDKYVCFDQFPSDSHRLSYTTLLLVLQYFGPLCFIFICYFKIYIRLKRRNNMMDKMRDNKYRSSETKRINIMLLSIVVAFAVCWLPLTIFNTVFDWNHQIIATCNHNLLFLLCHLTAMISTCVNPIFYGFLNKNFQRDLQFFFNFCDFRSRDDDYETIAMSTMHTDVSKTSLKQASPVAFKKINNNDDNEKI
# [3] = target: Sphingosine 1-phosphate receptor 2 (Homo sapiens, UniProt O95136); test: Dose Response Cell Based Assay for Agonists of the S1P2 Receptor of Purchased Analogues. [Related pubchem assays: 729, 843, 854, 736 ]; assay type: functional
# Sequence of Sphingosine 1-phosphate receptor 2 (O95136 whole entry): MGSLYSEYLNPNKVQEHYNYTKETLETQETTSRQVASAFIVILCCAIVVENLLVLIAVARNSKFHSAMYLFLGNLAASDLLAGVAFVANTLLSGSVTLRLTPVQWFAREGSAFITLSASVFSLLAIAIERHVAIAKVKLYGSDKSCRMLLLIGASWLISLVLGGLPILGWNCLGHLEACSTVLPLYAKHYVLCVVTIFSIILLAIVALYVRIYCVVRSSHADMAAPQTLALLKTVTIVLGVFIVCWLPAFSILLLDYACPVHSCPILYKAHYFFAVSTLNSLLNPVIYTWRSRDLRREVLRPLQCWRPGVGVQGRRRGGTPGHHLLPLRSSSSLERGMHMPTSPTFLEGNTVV
# Bcl-2-related protein A1 [4] = target: T3, Bcl-2-related protein A1 (Mus musculus, UniProt Q07440); test: Bfl-1 inhibitors blocking BH3 peptide binding, confirmation, biochemical, TR-FRET, mouse Bfl-1 (AID 621);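 further: TR-FRET binding of GST-Bfl-1 to FITC-labelled Bid peptide via terbium antibody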
# T3 sequence (Q07440 whole entry): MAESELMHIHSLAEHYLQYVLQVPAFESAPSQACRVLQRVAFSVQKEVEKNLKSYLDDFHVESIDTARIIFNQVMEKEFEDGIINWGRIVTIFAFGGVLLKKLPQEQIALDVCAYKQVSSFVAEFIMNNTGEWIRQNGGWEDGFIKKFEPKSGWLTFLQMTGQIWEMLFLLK
# [5] = target: Glyceraldehyde-3-phosphate dehydrogenase (Homo sapiens, UniProt P04406)
# Sequence of Glyceraldehyde-3-phosphate dehydrogenase (P04406 whole entry): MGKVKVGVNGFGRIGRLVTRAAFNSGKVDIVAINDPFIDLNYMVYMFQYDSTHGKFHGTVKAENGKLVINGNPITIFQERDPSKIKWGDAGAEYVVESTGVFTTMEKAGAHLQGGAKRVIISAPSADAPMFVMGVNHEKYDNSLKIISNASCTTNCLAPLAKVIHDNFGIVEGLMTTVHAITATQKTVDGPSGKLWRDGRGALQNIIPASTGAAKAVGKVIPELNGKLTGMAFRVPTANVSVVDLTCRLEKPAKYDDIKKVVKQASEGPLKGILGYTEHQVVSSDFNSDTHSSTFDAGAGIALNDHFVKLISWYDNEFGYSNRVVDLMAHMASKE
# Bcl-2-related protein A1 [6] = target: T3, Bcl-2-related protein A1; test: Bfl-1 binding inhibitors, SAR follow-up, biochemical, fluorescence polarization (AID 1070)
# Bcl-2-like protein 10 = Bcl-2-like protein 10 (Homo sapiens, UniProt Q9HD36); test: Biochemical TR3 FP assay of Bcl-B inhibitor potency, EC50 (AID 1243); assay type: functional
# Sequence of Bcl-2-like protein 10 (Q9HD36 whole entry): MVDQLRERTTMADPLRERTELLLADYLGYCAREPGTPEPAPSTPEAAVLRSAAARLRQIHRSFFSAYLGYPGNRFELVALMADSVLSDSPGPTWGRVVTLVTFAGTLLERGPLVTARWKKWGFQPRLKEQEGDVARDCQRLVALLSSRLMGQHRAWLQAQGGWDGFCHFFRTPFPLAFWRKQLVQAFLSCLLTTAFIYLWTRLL
# cells [7] = test: cells
# [8] = HEp-2 cell cytotoxicity, dose response, cytotoxicity control for RSV inhibitor project, HTS (AID 2410); assay type: functional; details: human respiratory syncytial virus
# [9] = inhibitors of intracellular T. cruzi replication, confirmation, NIH3T3 host cells, beta-gal luminescence (AID 2044); assay type: functional, cell-based;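 further: intracellular parasites grown in NIH/3T3 mouse fibroblasts as host cells; luminescent beta-galactosidase reporter signal from transgenic T. cruzi replicating inside host cells; inhibitors lower the luminescence signal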
# cells [10] = test: cells; remark: listed apart in the source
# [11] = target: T4, Replicative DNA helicase DnaB (Mycobacterium tuberculosis, UniProt P9WMR3); test: DnaB intein splicing inhibitors, dose response, biochemical, cell-free fluorescence (AID 449749); assay type: functional
# T4 sequence (P9WMR3 whole entry): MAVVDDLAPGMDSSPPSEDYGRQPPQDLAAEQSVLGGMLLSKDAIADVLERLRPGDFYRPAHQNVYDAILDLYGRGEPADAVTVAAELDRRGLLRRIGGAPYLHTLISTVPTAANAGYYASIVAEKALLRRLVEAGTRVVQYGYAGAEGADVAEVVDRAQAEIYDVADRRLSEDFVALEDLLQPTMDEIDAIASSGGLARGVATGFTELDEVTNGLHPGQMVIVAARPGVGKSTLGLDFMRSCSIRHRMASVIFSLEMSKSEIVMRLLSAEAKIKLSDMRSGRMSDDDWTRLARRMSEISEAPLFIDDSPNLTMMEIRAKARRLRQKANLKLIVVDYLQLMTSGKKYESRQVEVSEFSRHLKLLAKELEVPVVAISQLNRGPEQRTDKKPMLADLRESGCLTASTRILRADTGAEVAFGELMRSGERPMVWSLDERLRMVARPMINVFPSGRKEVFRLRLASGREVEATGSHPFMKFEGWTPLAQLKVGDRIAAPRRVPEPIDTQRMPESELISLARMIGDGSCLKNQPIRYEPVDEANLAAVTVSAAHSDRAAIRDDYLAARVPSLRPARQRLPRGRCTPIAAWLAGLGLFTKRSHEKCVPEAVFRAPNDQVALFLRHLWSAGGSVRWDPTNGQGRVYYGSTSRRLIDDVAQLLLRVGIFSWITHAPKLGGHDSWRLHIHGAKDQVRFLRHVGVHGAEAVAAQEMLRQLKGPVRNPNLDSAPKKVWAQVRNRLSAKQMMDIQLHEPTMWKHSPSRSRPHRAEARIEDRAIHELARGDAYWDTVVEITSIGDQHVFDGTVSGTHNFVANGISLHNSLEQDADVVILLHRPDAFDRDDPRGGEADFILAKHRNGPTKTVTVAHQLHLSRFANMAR
# [12] = cytotoxicity toward NIH3T3 fibroblasts, dose response, counter-screen, cell-based, ATP luminescence, mouse fibroblasts (AID 2010); assay type: functional;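 further: cells exposed to compound for about 90 hours before reading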
# Protein RecA = target: T5, Protein RecA (Mycobacterium tuberculosis, UniProt P9WHJ3); test: Fluorescence Cell-Free Homogeneous Dose Retest to Identify Inhibitors of RecA-Intein Splicing Activity. [Related pubchem assays (depositor defined):AID2097, AID2223, AID489010, AID492950]; assay type: functional
# T5 sequence (P9WHJ3 whole entry): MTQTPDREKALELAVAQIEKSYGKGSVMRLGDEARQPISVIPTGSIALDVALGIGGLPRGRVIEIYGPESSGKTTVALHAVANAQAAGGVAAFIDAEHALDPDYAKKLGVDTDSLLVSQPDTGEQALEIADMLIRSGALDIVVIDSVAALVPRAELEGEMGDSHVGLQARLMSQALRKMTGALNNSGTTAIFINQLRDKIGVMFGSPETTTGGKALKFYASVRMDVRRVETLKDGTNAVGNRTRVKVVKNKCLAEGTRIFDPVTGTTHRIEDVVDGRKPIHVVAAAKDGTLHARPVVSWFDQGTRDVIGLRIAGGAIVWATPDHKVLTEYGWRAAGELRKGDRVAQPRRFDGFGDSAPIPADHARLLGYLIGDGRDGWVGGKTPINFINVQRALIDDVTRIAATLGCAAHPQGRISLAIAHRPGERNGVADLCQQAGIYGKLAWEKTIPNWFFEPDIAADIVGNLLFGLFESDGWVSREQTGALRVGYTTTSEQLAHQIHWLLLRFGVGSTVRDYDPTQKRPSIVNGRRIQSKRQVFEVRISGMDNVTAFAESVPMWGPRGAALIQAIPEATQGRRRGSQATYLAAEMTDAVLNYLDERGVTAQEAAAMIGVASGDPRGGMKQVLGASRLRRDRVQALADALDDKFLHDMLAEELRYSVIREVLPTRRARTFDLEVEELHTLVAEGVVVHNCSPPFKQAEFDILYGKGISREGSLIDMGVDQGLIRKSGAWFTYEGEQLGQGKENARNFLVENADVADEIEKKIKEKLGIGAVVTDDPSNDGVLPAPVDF
# [13] = target: Eukaryotic translation initiation factor 4E (Mus musculus, UniProt P63073); test: eIF4E–eIF4G protein interaction inhibitors, dose response, biochemical, TR-FRET (AID 855); assay type: functional;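 further: potency for disrupting eIF4E binding to eIF4GI seen as loss of FRET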
# Sequence of Eukaryotic translation initiation factor 4E (P63073 whole entry): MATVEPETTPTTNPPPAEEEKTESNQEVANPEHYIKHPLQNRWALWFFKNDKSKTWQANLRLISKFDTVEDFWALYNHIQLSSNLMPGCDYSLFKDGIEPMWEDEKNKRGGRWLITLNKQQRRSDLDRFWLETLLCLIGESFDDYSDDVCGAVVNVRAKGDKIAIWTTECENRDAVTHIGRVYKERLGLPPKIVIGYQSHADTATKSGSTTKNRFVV
# Genome polyprotein = Genome polyprotein (Hepatitis C virus, UniProt Q2Q167); test: HCV core protein dimerization inhibitors, dose response, biochemical, TR-FRET (AID 2159); parameters: species or system Hepacivirus hominis;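 further: blocks dimerization of HCV core protein measured by TR-FRET between tagged core106 pairs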
# Sequence of Genome polyprotein (Q2Q167 whole entry): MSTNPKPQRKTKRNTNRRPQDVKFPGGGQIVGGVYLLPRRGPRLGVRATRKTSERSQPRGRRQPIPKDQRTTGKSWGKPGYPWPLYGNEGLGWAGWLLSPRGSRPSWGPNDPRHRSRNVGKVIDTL
# [14] = target: T6, Tyrosine-protein phosphatase non-receptor type 7 (Homo sapiens, UniProt P35236); assay type: functional
# T6 sequence (P35236 whole entry): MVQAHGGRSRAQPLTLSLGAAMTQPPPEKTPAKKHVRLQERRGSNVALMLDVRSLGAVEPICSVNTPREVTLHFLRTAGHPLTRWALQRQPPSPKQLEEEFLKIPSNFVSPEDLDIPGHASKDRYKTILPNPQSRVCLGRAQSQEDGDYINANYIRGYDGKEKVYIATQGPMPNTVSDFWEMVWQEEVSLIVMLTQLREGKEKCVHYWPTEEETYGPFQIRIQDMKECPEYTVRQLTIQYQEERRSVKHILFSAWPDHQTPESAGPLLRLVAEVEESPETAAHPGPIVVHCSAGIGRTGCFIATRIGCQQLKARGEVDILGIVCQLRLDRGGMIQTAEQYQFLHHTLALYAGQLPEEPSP
# [15] = target: T7, Dual specificity protein phosphatase 6 (Rattus norvegicus, UniProt Q64346); test: MKP-3 phosphatase inhibitors, primary screen, biochemical, rat enzyme, in vitro (AID 425)
# T7 sequence (Q64346 whole entry): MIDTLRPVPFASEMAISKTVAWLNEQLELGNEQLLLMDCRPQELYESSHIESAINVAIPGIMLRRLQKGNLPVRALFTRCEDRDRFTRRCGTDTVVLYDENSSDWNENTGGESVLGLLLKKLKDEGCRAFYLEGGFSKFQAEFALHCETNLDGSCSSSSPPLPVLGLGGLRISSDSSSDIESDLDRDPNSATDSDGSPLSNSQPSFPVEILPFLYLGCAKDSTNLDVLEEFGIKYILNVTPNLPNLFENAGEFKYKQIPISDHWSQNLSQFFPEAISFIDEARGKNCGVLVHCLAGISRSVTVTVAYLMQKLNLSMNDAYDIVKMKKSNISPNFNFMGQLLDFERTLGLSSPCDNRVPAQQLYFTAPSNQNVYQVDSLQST
# Bcl-2-like protein 1 = Bcl-2-like protein 1 (Homo sapiens, UniProt Q07817); test: BCL-XL inhibitors, dose response, selectivity assay for MCL1 inhibitor project, biochemical, fluorescence polarization, 1536-well (AID 2218)
# Sequence of Bcl-2-like protein 1 (Q07817 whole entry): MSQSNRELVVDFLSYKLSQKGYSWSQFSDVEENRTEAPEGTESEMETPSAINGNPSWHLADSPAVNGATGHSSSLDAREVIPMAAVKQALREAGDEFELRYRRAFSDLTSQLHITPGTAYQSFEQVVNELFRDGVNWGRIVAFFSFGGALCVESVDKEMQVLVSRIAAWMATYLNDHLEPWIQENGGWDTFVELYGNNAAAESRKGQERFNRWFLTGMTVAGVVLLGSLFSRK
# [16] = target: T7, Dual specificity protein phosphatase 6; assay type: functional
# [17] = target: Induced myeloid leukemia cell differentiation protein Mcl-1 (Homo sapiens, UniProt Q07820); test: MCL1-BIM BH3 interaction inhibitors, dose response, biochemical, fluorescence polarization, BIM-BH3 peptide, 1536-well (AID 2217)
# Sequence of Induced myeloid leukemia cell differentiation protein Mcl-1 (Q07820 whole entry): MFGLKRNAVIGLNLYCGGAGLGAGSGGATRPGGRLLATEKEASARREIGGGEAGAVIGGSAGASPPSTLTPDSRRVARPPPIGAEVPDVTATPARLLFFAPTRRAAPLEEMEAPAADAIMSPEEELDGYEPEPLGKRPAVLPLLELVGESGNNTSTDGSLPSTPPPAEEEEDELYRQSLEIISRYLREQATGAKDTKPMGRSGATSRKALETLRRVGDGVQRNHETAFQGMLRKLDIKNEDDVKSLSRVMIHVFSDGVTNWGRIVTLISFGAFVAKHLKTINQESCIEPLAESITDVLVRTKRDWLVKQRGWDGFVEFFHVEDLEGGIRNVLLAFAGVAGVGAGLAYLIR
# [18] = target: T7, Dual specificity protein phosphatase 6
# Mucolipin-3 = target: T8, Mucolipin-3 (Homo sapiens, UniProt Q8TDD5); test: Dose response cell-based high-throughput screening assay for agonists of the transient receptor potential channel ML3 (TRPML3). [Related pubchem assays: 1526, 1424, 1448 ]; assay type: functional
# T8 sequence (Q8TDD5 whole entry): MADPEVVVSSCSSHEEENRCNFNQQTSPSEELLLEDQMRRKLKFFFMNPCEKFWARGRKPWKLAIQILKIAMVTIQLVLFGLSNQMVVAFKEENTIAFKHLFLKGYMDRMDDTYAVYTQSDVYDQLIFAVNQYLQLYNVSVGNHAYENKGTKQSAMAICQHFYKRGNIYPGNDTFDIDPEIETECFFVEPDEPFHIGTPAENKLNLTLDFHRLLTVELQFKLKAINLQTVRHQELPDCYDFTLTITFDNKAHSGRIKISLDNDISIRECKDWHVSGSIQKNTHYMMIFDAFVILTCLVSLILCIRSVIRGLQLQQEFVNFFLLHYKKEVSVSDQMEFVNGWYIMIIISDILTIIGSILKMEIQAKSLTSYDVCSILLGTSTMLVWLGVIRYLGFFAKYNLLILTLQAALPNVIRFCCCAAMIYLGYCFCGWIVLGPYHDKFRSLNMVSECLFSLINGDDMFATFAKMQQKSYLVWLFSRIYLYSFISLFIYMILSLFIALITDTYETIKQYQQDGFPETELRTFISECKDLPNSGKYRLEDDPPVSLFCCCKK
# [19] = target: Mothers against decapentaplegic homolog 3 (Homo sapiens, UniProt P84022); test: SMAD3 transcription factor inhibitors, dose response (AID 715); assay type: functional
# Sequence of Mothers against decapentaplegic homolog 3 (P84022 whole entry): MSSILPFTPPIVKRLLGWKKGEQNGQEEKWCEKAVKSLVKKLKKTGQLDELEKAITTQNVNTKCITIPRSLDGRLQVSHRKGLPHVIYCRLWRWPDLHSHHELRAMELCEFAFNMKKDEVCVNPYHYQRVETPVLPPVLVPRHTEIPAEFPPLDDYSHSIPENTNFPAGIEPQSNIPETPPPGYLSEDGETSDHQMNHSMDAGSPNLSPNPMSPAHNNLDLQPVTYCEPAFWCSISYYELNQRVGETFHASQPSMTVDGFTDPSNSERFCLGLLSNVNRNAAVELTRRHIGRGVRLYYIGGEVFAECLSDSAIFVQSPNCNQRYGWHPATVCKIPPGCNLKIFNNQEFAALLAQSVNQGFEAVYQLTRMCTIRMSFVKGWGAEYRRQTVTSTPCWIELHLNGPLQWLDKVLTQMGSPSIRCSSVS
# Ion channel NompC = Ion channel NompC (Danio rerio, UniProt Q7T1G6); test: Fluorescence counterscreen assay for TRPML3 agonists: dose response cell-based high-throughput screening assay to identify agonists of the transient receptor potential channel N1 (TRPN1). [Related pubchem assays: 1526, 1424, 1448 ]; assay type: functional
# Sequence of Ion channel NompC (Q7T1G6 whole entry): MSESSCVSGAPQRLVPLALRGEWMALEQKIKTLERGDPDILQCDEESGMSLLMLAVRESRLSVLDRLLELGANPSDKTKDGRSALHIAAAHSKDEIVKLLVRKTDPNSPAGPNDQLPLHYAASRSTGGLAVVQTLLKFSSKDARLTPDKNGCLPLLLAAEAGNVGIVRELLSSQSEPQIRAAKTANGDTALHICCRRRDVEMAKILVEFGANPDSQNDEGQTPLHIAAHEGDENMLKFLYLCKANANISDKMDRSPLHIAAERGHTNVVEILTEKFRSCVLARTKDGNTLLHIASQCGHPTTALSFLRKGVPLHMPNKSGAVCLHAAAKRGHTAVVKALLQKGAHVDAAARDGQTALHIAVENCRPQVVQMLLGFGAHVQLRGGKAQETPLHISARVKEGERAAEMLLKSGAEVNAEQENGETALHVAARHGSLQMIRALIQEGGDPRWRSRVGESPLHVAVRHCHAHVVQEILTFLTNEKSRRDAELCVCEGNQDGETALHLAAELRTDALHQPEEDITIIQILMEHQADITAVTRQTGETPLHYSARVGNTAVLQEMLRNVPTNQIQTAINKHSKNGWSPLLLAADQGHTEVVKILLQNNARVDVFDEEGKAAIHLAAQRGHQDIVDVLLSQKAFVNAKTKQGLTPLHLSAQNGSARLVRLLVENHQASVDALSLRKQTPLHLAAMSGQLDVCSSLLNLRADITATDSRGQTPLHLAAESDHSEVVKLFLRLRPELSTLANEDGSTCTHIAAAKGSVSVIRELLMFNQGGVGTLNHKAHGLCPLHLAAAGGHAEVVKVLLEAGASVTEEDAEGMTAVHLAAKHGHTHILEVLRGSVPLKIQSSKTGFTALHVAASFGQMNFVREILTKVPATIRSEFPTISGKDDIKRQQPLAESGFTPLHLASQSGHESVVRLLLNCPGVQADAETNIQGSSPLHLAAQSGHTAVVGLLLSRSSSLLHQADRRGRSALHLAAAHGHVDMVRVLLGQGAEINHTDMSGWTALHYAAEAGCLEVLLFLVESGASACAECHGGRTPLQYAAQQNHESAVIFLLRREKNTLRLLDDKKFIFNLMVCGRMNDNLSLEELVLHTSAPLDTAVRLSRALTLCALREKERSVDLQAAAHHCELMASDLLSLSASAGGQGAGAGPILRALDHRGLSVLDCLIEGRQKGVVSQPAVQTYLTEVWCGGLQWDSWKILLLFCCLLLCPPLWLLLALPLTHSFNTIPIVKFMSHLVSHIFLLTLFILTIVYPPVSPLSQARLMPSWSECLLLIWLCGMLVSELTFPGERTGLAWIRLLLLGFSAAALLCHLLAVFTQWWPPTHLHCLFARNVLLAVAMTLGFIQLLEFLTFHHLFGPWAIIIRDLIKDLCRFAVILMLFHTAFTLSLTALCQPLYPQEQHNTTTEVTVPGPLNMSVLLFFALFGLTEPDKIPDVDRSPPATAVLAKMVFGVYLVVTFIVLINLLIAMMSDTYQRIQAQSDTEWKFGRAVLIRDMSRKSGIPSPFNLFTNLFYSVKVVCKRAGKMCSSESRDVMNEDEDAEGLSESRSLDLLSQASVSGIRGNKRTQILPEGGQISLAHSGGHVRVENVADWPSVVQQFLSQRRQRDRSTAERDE
compound,measurement,setting,value
CCCCNC(=O)c1onc(CSc2ccc(Cl)cc2)c1C(=O)O,IC50,[1],9.93 µM (active)
same,IC50,[2],16.8 µM (not active)
Cc1cc(C(=O)CSc2nc[nH]n2)c(C)n1Cc1ccccc1,EC50,[3],> 30 µM (not active)
O=C1C(Cl)=C(N2CCN(C(c3ccccc3)c3ccc(Cl)cc3)CC2)C(=O)N1c1ccc(Cl)c(Cl)c1 (stereo unspecified),IC50,Bcl-2-related protein A1 [4],> 100 µM (not active)
same,IC50,[5],> 100 µM (not active)
same,IC50,Bcl-2-related protein A1 [6],> 100 µM (not active)
CCSc1nc(NN)c2c3c(sc2n1)CN(C)CC3,EC50,Bcl-2-like protein 10,7.43 µM (active)
Cc1cccc2nc(-c3cccc(NC(=O)Cc4ccccc4)c3)cn12,IC50,cells [7],29.7 µM (active)
same,CC50,[8],42.8 µM (active)
O=C(CNC(=O)c1ccccc1)N/N=C/c1ccc([N+](=O)[O-])o1,EC50,[9],< 0.1 µM (active)
same,EC50,cells [10],0.022 µM (active)
same,AC50,[11],> 380 µM (inactive)
same,EC50,[12],> 60 µM (not active)
same,EC50,Protein RecA,> 380 µM (inactive)
CCCCCC#CCC#CCC#CCC#CCCCC(=O)O,IC50,[13],32.1 µM (inactive)
same,IC50,Genome polyprotein,46.3 µM (not active)
same,IC50,[14],15.4 µM (active)
same,IC50,[15],0.832 µM (active)
same,IC50,Bcl-2-like protein 1,> 109 µM (not active)
same,IC50,[16],30.4 µM (active)
same,IC50,[17],0.441 µM (active)
same,IC50,[5],> 100 µM (not active)
same,IC50,[18],25.1 µM (active)
CC(c1ccccc1)C1CC(=O)N(C2CCCCC2)C1=O (stereo unspecified),EC50,Mucolipin-3,4.1 µM (active)
same,IC50,[19],125 µM (inconclusive)
same,EC50,Ion channel NompC,> 29.9 µM (not active)
